Data from patent US5955421A, “Peptides containing D-2-alkyl-Tryptophan” (priority 1990, dated 1999).
Where two headings read alike, the source gives them in different places. Square brackets hold non-standard residues; d marks the D form. Peptide text beside a SMILES is read from it. dTrp(2-Me) = Cc1[nH]c2ccccc2c1C[C@@H](N)C(=O)O

What was measured:
[1] = Hydrophobicity comparison (FIG. 12); format: physicochemical
Description: FIG. 12 is a graphical comparison of the hydrophobicity of GHRP-6 and HEXARELIN;

[2] = system: pituitary cell monolayers; experiment: GH secretion of pituitary cell monolayers incubated with peptides; format: cell-based, rats; settings: 2 hours incubation
Description: (§1) Male Sprague Dawley rats (Charles River, Calco, Italy) of 2-3 months of age were used. Rats were housed at 22 +2° C., with lighting cycle of 14 h light: 10 h dark (lights on from 06.00 to 20.00 h), at least 10 days before starting the experiments. A standard dry diet and water were available ad libitum.
Pituitary tissue used for cell dissociation included only the anterior lobe. Briefly, pituitary glands were collected in sterile F-10 medium and after cutting into small fragments incubated twice (30 minutes each) at 37° C. in F-10 medium containing 6% fetal calf serum and collagenase (2.5 mg/ml) (Boehringer, Mannheim GmbH, Germany). Fragments were then washed in Dulbecco's PBS, Ca^2 + and Mg^2 + free medium and mechanically dissociated. Single cell suspension was planted onto 24-well (2×10^5 cells/well) culture plates. The cells were incubated in F-10 medium supplemented with 10% horse serum, 4% fetal calf serum and gentamycin (25 μg/ml), in a humidified atmosphere of 5% CO2 and 95% air at 37° C.
After 3 days, the medium was removed and the cells washed twice with serum free F-10, then incubated with 1 ml of F-10 containing 0.1% BSA only, or with added various concentrations of synthetic peptides.
After incubation for 2 h at 37° C., media were collected and stored frozen at -20° C. until assayed for measurement of GH content.
(§2) Medium and plasma GH was measured by radioimmunoassay using materials supplied by the NIADDK Bethesda, Md. Values were expressed in term of NIASSK-rat-GH-RP-2 standard (potency 2 IU/ml), as ng/ml of medium or plasma.
(§3) The minimum detectable value of rat was 1.0 ng/ml; intra-assay variability was 6%. To avoid inter-assay variation, samples from each experiment were assayed simultaneously.

GH release [3] = experiment: Released GH in ten day-rats, s.c. (Table 9); format: in vivo; settings: 300 μg/kg s.c., 15 minutes, GH control 10 to 31 ng/ml depending on experiment
Description: In vivo activity of these compounds was determined in ten day-rats, which were subcutaneously injected (s.c.) with a dose of 300 μg/kg or with different doses in dose-response studies, according to the procedure as described in Deghenghi et. al, Life Sciences 54, 1321 (1994). The released GH was measured 15 minutes following compound administration.

[4] = system: Human hypothalamus tissue; experiment: Inhibition of 125I-Tyr-Ala-HEXARELIN binding to human hypothalamus tissue membranes
Description: (§4) Tissue membranes (0.1 mg protein) obtained from the heart and hypothalamus of two different adult subjects were incubated in triplicate with a subsaturating concentration (34 pM, about 48,000 cpm, for heart tissue and 42 pM, about 60,000 cpm for hypothalamus tissue) of ^125 I-Tyr-Ala-HEXARELIN for 40 min at 0° C. in the absence and in the presence of increasing concentrations of the indicated unlabelled peptides. The value in parentheses represents the % of inhibition of ^125 I-Tyr-Ala-HEXARELIN specifically bound.
(§5) The specific binding of ^125 I-Tyr-Ala-HEXARELIN/0.1 mg membrane protein is expressed as a percent of total radioactivity added.

GH release [5] = experiment: Plasma GH after s.c. administration in male rats anesthetized with ketamine and xilazine; format: in vivo
Description: as §1
Between 09.00-10.00 h rats were anesthetized with ketamine (58 mg/kg, Inoketam, VIRBAC, Milano) and xilazine (12 mg/kg, Rompun, Bayer, Milano). Thirty minutes later, a blood sample ([…]) was withdrawn from the exposed jugular vein, peptides were injected intravenously or subcutaneously, and further blood samples were collected 10, 20 and 30 minutes later.
as §2, §3

Human heart tissue = experiment: Inhibition of 125I-Tyr-Ala-HEXARELIN binding to human heart tissue membranes
Description: as §4, §5

Growth Hormone release = experiment: GH release in 10-day old rats, s.c. 160 μg/kg; format: in vivo; settings: 160 μg/kg s.c.
Description: The peptides of Examples 4 and 5 were tested as Growth Hormone releasers in rats. GH released in a series of seven 10-day old rats, injected subcutaneously with a standard dose of 160 μg/kg and sacrificed 15 minutes after the injection.

growth hormone secretion = experiment: Growth hormone secretion in young healthy male volunteers; format: in vivo, human; settings: young (20-30 years old) healthy male volunteers, various dosages, FIGS. 18-20
Description: The effects of HEXARELIN on growth hormone secretion in young (20-30 years old) healthy male volunteers were measured after the administration of various dosages.

rat = experiment: Acute cardiovascular toxicity in the rat, single i.v. dose, mortality; format: in vivo; settings: for Dead rats/Total No of rats per group: observed up to 4 hours
Description: These two peptides were also tested for acute cardiovascular toxicity in the rat.
Dosages were calculated on the basis of the declared peptide content in each product, as specified below:
A single dose of HEXARELIN or GHRP-6 was administered to rats in different calendar dates in such a way that each group/dose should be treated in two subsequent days.
For each compound, appropriate amounts of solutions in 0.9% NaCl for injection were prepared just before treatment at the suitable concentrations. The solutions were sterilized by filtration (Millipore filter, pore size 0.22 μm). Owing to the type of the study (acute study) in which formulates were administered just after preparation, stability checks were not performed. Concentration checks were also not performed. The volume of solution injected was maintained constant at 1 ml/Kg.
The intravenous injections were done as a single dose in one vein of the tail with an appropriately gauged sterile, disposable, plastic syringe. The injection rate was about 0.1 ml/sec.
Periodical observations were made up to 4 hours after treatment. Abnormality and mortality were recorded. Body weight was recorded once during pre-trial and on the administration day to calculate the volumes to be injected.

[6] = mean of two subjects, read-out: mean IC50 value
[7] = subject 1, read-out: IC50 value
[8] = subject 2, read-out: IC50 value

Compound: Cc1[nH]c2ccccc2c1C[C@@H](NC(=O)[C@@H](N)Cc1cnc[nH]1)C(=O)N[C@@H](C)C(=O)N[C@@H](Cc1c[nH]c2ccccc12)C(=O)N[C@H](Cc1ccccc1)C(=O)N[C@@H](CCCCN)C(N)=O [Example 4, His-D-2-methyl-Trp-Ala-Trp-D-Phe-Lys-NH2] (H-H[dTrp(2-Me)]AW[dF]K-NH2)
- hydrophobicity [1]: greater hydrophobicity than GHRP-6
- GH-releasing activity ([2]; 10^-6 M): 558.0 ± 19.1 ng/well
- GH-releasing activity ([2]; 10^-7 M): 589.1 ± 17.9 ng/well
- GH-releasing activity ([2]; 10^-8 M): 557.8 ± 15.9 ng/well
- GH released (GH release [3]): 104.2 ± 13.1 ng/mL
- inhibition of 125I-Tyr-Ala-HEXARELIN specifically bound ([4]; 0.1 nM peptide, subject 1): 3%
- specific binding of 125I-Tyr-Ala-HEXARELIN ([4]; 0.1 nM peptide, subject 1): 10.7% of total radioactivity
- inhibition of 125I-Tyr-Ala-HEXARELIN specifically bound ([4]; 0.1 nM peptide, subject 2): 4%
- specific binding of 125I-Tyr-Ala-HEXARELIN ([4]; 0.1 nM peptide, subject 2): 9.1% of total radioactivity
- inhibition of 125I-Tyr-Ala-HEXARELIN specifically bound ([4]; 1 nM peptide, subject 1): 16%
- specific binding of 125I-Tyr-Ala-HEXARELIN ([4]; 1 nM peptide, subject 1): 9.6% of total radioactivity
- inhibition of 125I-Tyr-Ala-HEXARELIN specifically bound ([4]; 1 nM peptide, subject 2): 19%
- specific binding of 125I-Tyr-Ala-HEXARELIN ([4]; 1 nM peptide, subject 2): 7.7% of total radioactivity
- inhibition of 125I-Tyr-Ala-HEXARELIN specifically bound ([4]; 10 nM peptide, subject 1): 51%
- specific binding of 125I-Tyr-Ala-HEXARELIN ([4]; 10 nM peptide, subject 1): 5.2% of total radioactivity
- inhibition of 125I-Tyr-Ala-HEXARELIN specifically bound ([4]; 10 nM peptide, subject 2): 67%
- specific binding of 125I-Tyr-Ala-HEXARELIN ([4]; 10 nM peptide, subject 2): 3.1% of total radioactivity
- inhibition of 125I-Tyr-Ala-HEXARELIN specifically bound ([4]; 100 nM peptide, subject 1): 89%
- specific binding of 125I-Tyr-Ala-HEXARELIN ([4]; 100 nM peptide, subject 1): 1.2% of total radioactivity
- inhibition of 125I-Tyr-Ala-HEXARELIN specifically bound ([4]; 100 nM peptide, subject 2): 93%
- specific binding of 125I-Tyr-Ala-HEXARELIN ([4]; 100 nM peptide, subject 2): 0.7% of total radioactivity
- inhibition of 125I-Tyr-Ala-HEXARELIN specifically bound ([4]; 1000 nM peptide, subject 1): 100%
- specific binding of 125I-Tyr-Ala-HEXARELIN ([4]; 1000 nM peptide, subject 1): 0% of total radioactivity
- inhibition of 125I-Tyr-Ala-HEXARELIN specifically bound ([4]; 1000 nM peptide, subject 2): 100%
- specific binding of 125I-Tyr-Ala-HEXARELIN ([4]; 1000 nM peptide, subject 2): 0% of total radioactivity
- IC50 [4, 6]: 7 nM
- IC50 [4, 7]: 8.9 nM
- IC50 [4, 8]: 5 nM
- plasma GH (GH release [5]; s.c. 600 μg/kg, 30 min): 115.3 ± 19.1 ng/mL
- GH-releasing effectiveness compared (GH release [5]; s.c. 150, 300 and 600 μg/kg, 10, 20 and 30 minutes): more effective than GHRP-6 at all the considered times
- inhibition of 125I-Tyr-Ala-HEXARELIN specifically bound (Human heart tissue; 0.1 nM peptide, subject 1): 4%
- specific binding of 125I-Tyr-Ala-HEXARELIN (Human heart tissue; 0.1 nM peptide, subject 1): 20.1% of total radioactivity
- inhibition of 125I-Tyr-Ala-HEXARELIN specifically bound (Human heart tissue; 0.1 nM peptide, subject 2): 5%
- specific binding of 125I-Tyr-Ala-HEXARELIN (Human heart tissue; 0.1 nM peptide, subject 2): 22.8% of total radioactivity
- inhibition of 125I-Tyr-Ala-HEXARELIN specifically bound (Human heart tissue; 1 nM peptide, subject 1): 20%
- specific binding of 125I-Tyr-Ala-HEXARELIN (Human heart tissue; 1 nM peptide, subject 1): 16.9% of total radioactivity
- inhibition of 125I-Tyr-Ala-HEXARELIN specifically bound (Human heart tissue; 1 nM peptide, subject 2): 28%
- specific binding of 125I-Tyr-Ala-HEXARELIN (Human heart tissue; 1 nM peptide, subject 2): 17.3% of total radioactivity
- inhibition of 125I-Tyr-Ala-HEXARELIN specifically bound (Human heart tissue; 10 nM peptide, subject 1): 51%
- specific binding of 125I-Tyr-Ala-HEXARELIN (Human heart tissue; 10 nM peptide, subject 1): 10.4% of total radioactivity
- inhibition of 125I-Tyr-Ala-HEXARELIN specifically bound (Human heart tissue; 10 nM peptide, subject 2): 56%
- specific binding of 125I-Tyr-Ala-HEXARELIN (Human heart tissue; 10 nM peptide, subject 2): 10.5% of total radioactivity
- inhibition of 125I-Tyr-Ala-HEXARELIN specifically bound (Human heart tissue; 100 nM peptide, subject 1): 92%
- specific binding of 125I-Tyr-Ala-HEXARELIN (Human heart tissue; 100 nM peptide, subject 1): 1.7% of total radioactivity
- inhibition of 125I-Tyr-Ala-HEXARELIN specifically bound (Human heart tissue; 100 nM peptide, subject 2): 90%
- specific binding of 125I-Tyr-Ala-HEXARELIN (Human heart tissue; 100 nM peptide, subject 2): 2.4% of total radioactivity
- inhibition of 125I-Tyr-Ala-HEXARELIN specifically bound (Human heart tissue; 1000 nM peptide, subject 1): 100%
- specific binding of 125I-Tyr-Ala-HEXARELIN (Human heart tissue; 1000 nM peptide, subject 1): 0% of total radioactivity
- inhibition of 125I-Tyr-Ala-HEXARELIN specifically bound (Human heart tissue; 1000 nM peptide, subject 2): 100%
- specific binding of 125I-Tyr-Ala-HEXARELIN (Human heart tissue; 1000 nM peptide, subject 2): 0% of total radioactivity
- IC50 (Human heart tissue; [6]): 9.5 nM
- IC50 (Human heart tissue; [7]): 10.6 nM
- IC50 (Human heart tissue; [8]): 8.3 nM
- activity as Growth Hormone releaser (Growth Hormone release): very active
- effect on growth hormone secretion (growth hormone secretion): effective in vivo
- Dead rats/Total No of rats per group (rat; 5.0 mg/kg i.v. single dose): 0/6
- Dead rats/Total No of rats per group (rat; 7.5 mg/kg i.v. single dose): 1/6
- Dead rats/Total No of rats per group (rat; 10 mg/kg i.v. single dose): 2/6
- toxicity compared (rat; i.v. single dose, rat): less toxic than GHRP-6
